Source: ChEMBL document CHEMBL1201862, “PubChem BioAssay data set” (2004)
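Following 48 hours of exposure in 96-well plates, responses at five concentrations were used to interpolate endpoints linearly. At the GI50, growth is halved.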 The source made the active and inactive calls. Rule as the data show it: active = GI50 up to about 1.1 µM and inactive = higher.

What was measured:
Test in all cases: NCI anticancer screen, dose series, 48 h
SR = test system: SR
HL-60 = test system: HL-60
BT-549 = test system: BT-549
LOX IMVI = test system: LOX IMVI
UO-31 = test system: UO-31
Hs-578T = test system: Hs-578T
CAKI-1 = test system: CAKI-1
KM12 = test system: KM12
UACC-62 = test system: UACC-62
MDA-MB-231 = test system: MDA-MB-231
T47D = test system: T47D
HCT-15 = test system: HCT-15
UACC-257 = test system: UACC-257
NCI-H522 = test system: NCI-H522
DU-145 = test system: DU-145
SNB-75 = test system: SNB-75
RXF 393 = test system: RXF 393
ACHN = test system: ACHN
OVCAR-4 = test system: OVCAR-4
NCI/ADR-RES = test system: NCI/ADR-RES

Row | SMILES | GI50 (SR) | GI50 (HL-60) | GI50 (BT-549) | GI50 (LOX IMVI) | GI50 (UO-31) | GI50 (Hs-578T) | GI50 (CAKI-1) | GI50 (KM12) | GI50 (UACC-62) | GI50 (MDA-MB-231) | GI50 (T47D) | GI50 (HCT-15) | GI50 (UACC-257) | GI50 (NCI-H522) | GI50 (DU-145) | GI50 (SNB-75) | GI50 (RXF 393) | GI50 (ACHN) | GI50 (OVCAR-4) | GI50 (NCI/ADR-RES)
1 | COc1cccc(C2c3cc4c(cc3OC(Nc3ccccc3)C2C)OCO4)c1OC (stereo not drawn) | 0.809 µM (active) | 2.1 µM (inactive) | 9.12 µM (inactive) | 3.77 µM (inactive) | 4.19 µM (inactive) | 3.08 µM (inactive) | 3.87 µM (inactive) | 4.02 µM (inactive) | 9.55 µM (inactive) | 13.7 µM (inactive) | 5.14 µM (inactive) | 4.37 µM | 35.6 µM (inactive) | 3.36 µM (inactive) | 7.08 µM (inactive) | 20.5 µM (inactive) | 3.66 µM (inactive) | 3.94 µM (inactive) | – | –
2 | COc1cc(-c2[o+]c3cc(O)cc(OC4OC(CO)C(O)C(O)C4O)c3cc2OC2OC(CO)C(O)C(O)C2O)cc(OC)c1O (stereo not drawn) | > 100 µM (inactive) | 21.1 µM (inactive) | > 100 µM (inactive) | > 100 µM (inactive) | > 100 µM (inactive) | > 100 µM (inactive) | > 100 µM (inactive) | > 100 µM (inactive) | > 100 µM (inactive) | > 100 µM (inactive) | > 100 µM (inactive) | > 100 µM | > 100 µM (inactive) | > 100 µM (inactive) | > 100 µM (inactive) | > 100 µM (inactive) | > 100 µM (inactive) | > 100 µM (inactive) | > 100 µM (inactive) | –
3 | CN(C)c1ccc(/C=N/c2ccc(-c3nc4ccccc4s3)cc2)cc1 | 36.3 µM (inactive) | 0.0408 µM (active) | 35.4 µM (inactive) | 33.3 µM (inactive) | 43.8 µM (inactive) | – | 28.6 µM (inactive) | 24.9 µM (inactive) | 8.59 µM (inactive) | – | 20 µM (inactive) | 32.1 µM | 28 µM (inactive) | 18.1 µM (inactive) | 35.6 µM (inactive) | 26.3 µM (inactive) | 17.9 µM (inactive) | 17.4 µM (inactive) | 58.7 µM (inactive) | 28.9 µM (inactive)
4 | Cc1ccc(S(=O)(=O)N2CC(CCN)c3ccccc32)cc1 (stereo not drawn) | 5.19 µM (inactive) | > 100 µM (inactive) | 5.69 µM (inactive) | 2.99 µM (inactive) | 4.61 µM (inactive) | 5.62 µM (inactive) | 6.38 µM (inactive) | 6.03 µM (inactive) | 3.68 µM (inactive) | 4.1 µM (inactive) | – | 4.05 µM | 4.78 µM (inactive) | 5.87 µM (inactive) | 3.87 µM (inactive) | 5.46 µM (inactive) | 2.74 µM (inactive) | 8.41 µM (inactive) | 17.5 µM (inactive) | 5.61 µM (inactive)
5 | CCOP(=O)(OCC)/C(C#N)=C/c1cnc(C)[nH]1 | > 100 µM (inactive) | > 100 µM (inactive) | > 100 µM (inactive) | > 100 µM (inactive) | > 100 µM (inactive) | > 100 µM (inactive) | > 100 µM (inactive) | > 100 µM (inactive) | > 100 µM (inactive) | > 100 µM (inactive) | – | > 100 µM | > 100 µM (inactive) | > 100 µM (inactive) | > 100 µM (inactive) | > 100 µM (inactive) | > 100 µM (inactive) | > 100 µM (inactive) | > 100 µM (inactive) | > 100 µM (inactive)
6 | O=C1N/C(=N/N=C/c2c[nH]c3ccccc23)N/C1=C\c1c[nH]c2ccccc12 | – | 18.9 µM (inactive) | 20.3 µM (inactive) | 17.4 µM (inactive) | – | 18.7 µM (inactive) | 31 µM (inactive) | 21 µM (inactive) | 19.7 µM (inactive) | 20 µM (inactive) | 17.5 µM (inactive) | 23 µM | 28.5 µM (inactive) | 11.9 µM (inactive) | 30.2 µM (inactive) | 28.6 µM (inactive) | 28.6 µM (inactive) | 21.3 µM (inactive) | 26.9 µM (inactive) | 27.3 µM (inactive)
7 | CCC(=O)O[C@H]1CC[C@H]2[C@@H]3CCC4=C/C(=N/OC(=O)c5cccc6c(=O)c7ccccc7[nH]c56)CC[C@]4(C)[C@H]3CC[C@]12C | 29.8 µM (inactive) | – | 25.3 µM (inactive) | 23.3 µM (inactive) | 26.4 µM (inactive) | 22.4 µM (inactive) | – | 22.9 µM (inactive) | 28.8 µM (inactive) | 88.3 µM (inactive) | 29.9 µM (inactive) | 21.3 µM | 38.1 µM (inactive) | 18.6 µM (inactive) | – | 54.6 µM (inactive) | 22.5 µM (inactive) | 47.9 µM (inactive) | 38.2 µM (inactive) | 31.7 µM (inactive)
8 | CCCc1n[nH]c(=O)n1N1C(=O)C=CC1=O | > 100 µM (inactive) | – | 30.5 µM (inactive) | – | – | – | > 100 µM (inactive) | – | > 100 µM (inactive) | > 100 µM (inactive) | > 100 µM (inactive) | > 100 µM | > 100 µM (inactive) | > 100 µM (inactive) | > 100 µM (inactive) | – | > 100 µM (inactive) | – | > 100 µM (inactive) | –
9 | Cc1cc2c(-c3ccccc3)cc(=O)[nH]c2cc1N | > 100 µM (inactive) | – | > 100 µM (inactive) | > 100 µM (inactive) | > 100 µM (inactive) | – | > 100 µM (inactive) | > 100 µM (inactive) | > 100 µM (inactive) | > 100 µM (inactive) | > 100 µM (inactive) | > 100 µM | > 100 µM (inactive) | – | > 100 µM (inactive) | > 100 µM (inactive) | > 100 µM (inactive) | > 100 µM (inactive) | > 100 µM (inactive) | > 100 µM (inactive)
10 | COCc1nc2c(OC)c(-c3nc4ccc(N5CCN(C)CC5)nc4[nH]3)cc(OC)c2n1C | – | 17.4 µM (inactive) | 43.7 µM (inactive) | 19.1 µM (inactive) | 22 µM (inactive) | 55.3 µM (inactive) | 40.7 µM (inactive) | 24 µM (inactive) | 20.7 µM (inactive) | 17.7 µM (inactive) | 38.6 µM (inactive) | 40.9 µM | 17.9 µM (inactive) | 27.4 µM (inactive) | 37.7 µM (inactive) | 18.5 µM (inactive) | 20.3 µM (inactive) | 17.5 µM (inactive) | 34 µM (inactive) | 55 µM (inactive)
11 | C=CCOc1ccc(C2C(C(=O)OC)C(=O)CC(O)(c3ccccc3)C2C(=O)OC)cc1OC (stereo not drawn) | 27.4 µM (inactive) | 31.6 µM (inactive) | 30.6 µM (inactive) | 40.1 µM (inactive) | 22.4 µM (inactive) | – | 32.3 µM (inactive) | 23.5 µM (inactive) | 27.4 µM (inactive) | 18.4 µM (inactive) | 20.8 µM (inactive) | > 100 µM | 58.1 µM (inactive) | 22.4 µM (inactive) | 51.6 µM (inactive) | 26.9 µM (inactive) | 15.9 µM (inactive) | 38.1 µM (inactive) | 23.6 µM (inactive) | 22.8 µM (inactive)
12 | CC1(C)O[C@@H]([C@H](O)CO)[C@H](O)[C@@H](C2SCCCS2)O1 | 23.2 µM (inactive) | – | > 100 µM (inactive) | – | > 100 µM (inactive) | – | > 100 µM (inactive) | > 100 µM (inactive) | > 100 µM (inactive) | > 100 µM (inactive) | > 100 µM (inactive) | > 100 µM | > 100 µM (inactive) | – | > 100 µM (inactive) | > 100 µM (inactive) | > 100 µM (inactive) | > 100 µM (inactive) | > 100 µM (inactive) | > 100 µM (inactive)
13 | N#CC1(C#N)NC(c2cccnc2)C(C#N)(C#N)NC1c1cccnc1 (stereo not drawn) | – | > 100 µM (inactive) | > 100 µM (inactive) | > 100 µM (inactive) | – | – | > 100 µM (inactive) | > 100 µM (inactive) | > 100 µM (inactive) | > 100 µM (inactive) | > 100 µM (inactive) | > 100 µM | > 100 µM (inactive) | – | > 100 µM (inactive) | 47.9 µM (inactive) | 28.1 µM (inactive) | – | > 100 µM (inactive) | > 100 µM (inactive)
14 | Nc1c(C(=O)c2ccc(Cl)c(Cl)c2)[nH]c(NCc2ccccc2)c1C(=S)Nc1ccccc1 | 3.1 µM (inactive) | 19.1 µM (inactive) | 15.8 µM (inactive) | 2.21 µM (inactive) | 6.7 µM (inactive) | – | 15.3 µM (inactive) | 3.18 µM (inactive) | 14.3 µM (inactive) | 4.73 µM (inactive) | 16.5 µM (inactive) | 2.51 µM | 13.8 µM (inactive) | 4.83 µM (inactive) | 15.3 µM (inactive) | 10 µM (inactive) | 10.4 µM (inactive) | 12.2 µM (inactive) | 3.81 µM (inactive) | 2.08 µM (inactive)
15 | O=c1[nH]c(=S)c2cc3c(=S)[nH]c(=O)n(CCO)c3nc2n1CCO | > 100 µM (inactive) | – | > 100 µM (inactive) | > 100 µM (inactive) | > 100 µM (inactive) | – | > 100 µM (inactive) | > 100 µM (inactive) | – | > 100 µM (inactive) | > 100 µM (inactive) | > 100 µM | > 100 µM (inactive) | > 100 µM (inactive) | – | > 100 µM (inactive) | > 100 µM (inactive) | > 100 µM (inactive) | > 100 µM (inactive) | > 100 µM (inactive)
16 | CC(=O)Nc1ccc(/N=N\c2c(O)c(S(=O)(=O)O)cc3cc(S(=O)(=O)O)ccc23)cc1 | – | – | > 100 µM (inactive) | – | > 100 µM (inactive) | > 100 µM (inactive) | > 100 µM (inactive) | > 100 µM (inactive) | > 100 µM (inactive) | > 100 µM (inactive) | > 100 µM (inactive) | > 100 µM | > 100 µM (inactive) | > 100 µM (inactive) | > 100 µM (inactive) | > 100 µM (inactive) | > 100 µM (inactive) | > 100 µM (inactive) | > 100 µM (inactive) | > 100 µM (inactive)
